The values that follow come from patent publication US12410179B2, “Modulators of TNF alpha activity and uses thereof” (RayThera, Inc., priority 2023, dated 2025).

The structures appear in SMILES notation.

TNFα, sequence (P01375 77-233 limits assumed): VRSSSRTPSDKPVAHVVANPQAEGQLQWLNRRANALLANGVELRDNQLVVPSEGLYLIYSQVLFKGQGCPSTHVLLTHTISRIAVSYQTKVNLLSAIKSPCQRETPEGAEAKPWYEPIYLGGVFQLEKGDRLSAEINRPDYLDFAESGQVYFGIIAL

This test addresses TNFα (Homo sapiens, UniProt P01375). As to the kind of experiment: HEK-Blue hTNFα reporter assay. It counts as cell-based. The arrangement: purchased R&D biosystem (R&D Systems) 210-TA-020/CF. Particulars: HEK-Blue hTNFα reporter cells, SEAP readout; read-out: IC50 Range. The text has this:
Stimulation of HEK293 cells by TNFα leads to activation of the NF-κB pathway. The potency of compounds was examined in HEK-Blue™ hTNFα reporter cells (Invivogen, Cat #hkb-tnfdmyd). HEK-Blue™ TNFα cells were generated by stable transfection of HEK293 cell line with a SEAP reporter gene under the control of the […] minimal promoter fused to NF-κB binding sites. Stimulation of HEK-Blue™ TNFα cells with TNFα triggers the activation of the NF-κB-inducible promoter and the production of SEAP. Levels of SEAP in the supernatant can be easily determined using QUANTI-Blue™ Solution (Invivogen, cat #rep-qbs) by reading the OD at 620-655 nm.
HEK-Blue™ TNFα cells were cultured in DMEM supplemented with 10% FBS, 100p/mL penicillin, 100 μg/mL streptomycin, 100 μg/mL normocin, 1 μg/mL puromycin, and 100 μg/mL zeocin. The culture was maintained in culture incubator with 5% CO2 at 37° C. When used for assay, the cells were gently rinsed twice with pre-warmed phosphate buffered saline (PBS) and detached in presence of PBS by tapping the flask or by using a cell scraper. The cells were spun to remove PBS and resuspended in fresh, pre-warmed test medium (DMEM supplemented with 10% FBS, 100p/mL penicillin, and 100 μg/mL streptomycin). A serial dilution of work solution of tested compound was made in DMSO with 1000× of final concentration, and 40 nL of compound DMSO solution was transferred into 384-well plates (Corning 3764) by Echo, and incubated with 10 μL of recombinant hTNFα (R&D biosystem, Cat #210-TA-020/CF) for 1 h at 37° C. The compound/hTNFα mixture well received 30 μL HEK-Blue™ TNFα cell suspension at 10000 cells/well, and then incubated at 37° C. with 5% CO2 for 24 h. The final concentration of hTNFα is […]. After incubation, 5 μL of induced cell supernatant was transferred to a new 384-well plate well (Coring 3764) to mix with 45 μL of QUANTI-Blue Solution. After 1 h incubation at 37° C., the plate was read using a spectrophotometer at 620 nm.
The percentage of inhibition was calculated by the following formula: % inhibition=(positive control−Sample)/(positive control−negative control)*100 • Positive control: OD620 reading of cells with hTNFα stimulation. • Negative control: OD620 reading of cells without hTNFα stimulation. • Sample: OD620 reading of cells with compound at specific concentration and hTNFα stimulation
The % inhibition was plotted against compound concentration in logarithmic scale and the IC50 was rendered using 4-parameter nonlinear regression (GraphPad Prism).
In general terms: A reporter such as luciferase makes a cellular process visible.
In the case of `CN1C(=O)c2cccc(OC(F)F)c2[C@@H]2C[C@H]1c1nn3ccc(-c4cnc(C5(N)CCC5)nc4)nc3c12` [Example 2, (7S,14R)-12-(2-(1-aminocyclobutyl)pyrimidin-5-yl)-1-(difluoromethoxy)-6-methyl-6,7-dihydro-7,14-methanobenzo[c]pyrimido[1′,2′:1,5]pyrazolo[4,3-f]azocin-5 (14H)-one], the IC50 (usually the midpoint of a concentration-inhibition curve) lay within 0.1 to 1 µM.
The figure for `CN1C(=O)c2cccc(OC(F)F)c2[C@H]2C[C@@H]1c1nn3cc(F)c(-c4ccc([S@@](=N)(=O)C5CC5)nc4)cc3c12` [Example 120] is less than 0.025 µM; for `Cc1nc(C2(N)CCC2)ncc1-c1ccn2nc3c(c2c1)[C@@H]1C[C@H]3NC(=O)c2cccc(OC(F)F)c21` [Example 234] it is less than 0.025 µM; for `[2H]C([2H])([2H])N1C(=O)c2cccc(OC(F)F)c2[C@H]2C[C@@H]1c1nn3cc(F)c(-c4cnc([C@]5(N)C[C@@](C)(CO)C5)nc4)nc3c12` [Example 274] it is less than 0.025 µM.
`CN1C(=O)c2cccc(OC(F)F)c2[C@H]2C[C@@H]1c1nn3ccc(-c4cnc(C5(O)CC(F)(F)C5)nc4)cc3c12` [Example 66]: the IC50 is less than 0.025 µM.
With `CN1C(=O)c2cccc(OC(F)F)c2[C@H]2C[C@@H]1c1nn3ccc(-c4cnc(C5(O)CCC(F)(F)CC5)nc4)cc3c12` [Example 72], the 50% inhibitory concentration (IC50) is less than 0.025 µM.
For `[2H]C([2H])([2H])N1C(=O)c2cccc(OC(F)F)c2[C@H]2C[C@@H]1c1nn3ccc(-c4cnc(C(C)(C)N)c(F)c4)cc3c12` [Example 325] the value was less than 0.025 µM; for `C[C@H](O)c1ncc(-c2ccn3nc4c(c3c2)[C@@H]2C[C@H]4N(C)C(=O)c3cccc(OC(F)F)c32)cn1` [Example 93], less than 0.025 µM.
The figure for `[2H]C([2H])([2H])N1C(=O)c2cccc(C#N)c2[C@H]2C[C@@H]1c1nn3cc(F)c(-c4cnc([C@]5(N)C[C@@](C)(C#N)C5)nc4)nc3c12` [Example 311] is 0.025 to 0.1 µM; for `CN1C(=O)c2cccc(OC(F)F)c2[C@H]2C[C@@H]1c1nn3ccc(-c4cnc(C(C)(C)O)nc4)cc3c12` [Example 19] it is less than 0.025 µM.
The figure for `CN1C(=O)c2ccnc(OC(F)F)c2[C@H]2C[C@@H]1c1nn3ccc(-c4cnc([C@]5(O)C[C@@](C)(O)C5)nc4)cc3c12` [Example 320, (7R,14S)-1-(difluoromethoxy)-12-(2-((1s,3R)-1,3-dihydroxy-3-methylcyclobutyl)pyrimidin-5-yl)-6-methyl-6,7-dihydro-7,14-methanopyrido[4,3-c]pyrido[1′,2′:1,5]pyrazolo[4,3-f]azocin-5 (14H)-one] is less than 0.025 µM; for `C[C@]1(O)C[C@](N)(c2ncc(-c3ccn4nc5c(c4c3)[C@@H]3C[C@H]5NC(=O)c4cccc(OC(F)F)c43)cn2)C1` [Example 197] it is less than 0.025 µM.
As to `CN1C(=O)c2cccc(OC(F)F)c2[C@H]2C[C@@H]1c1nn3ccc(-c4cnc([C@H](O)C5COC5)nc4)cc3c12` [Example 137], the IC50 is less than 0.025 µM.
The figure for `[2H]C([2H])([2H])N1C(=O)c2cccc(OC(F)F)c2[C@H]2C[C@@H]1c1nn3cc(C)c(-c4cnc([C@]5(N)C[C@@](C)(C#N)C5)nc4)cc3c12` [Example 259] is less than 0.025 µM; for `CN1C(=O)c2cccc(OC(F)F)c2[C@H]2C[C@@H]1c1nn3ccc(C4=CCC(C(C)(C)O)OC4)cc3c12` (stereo in doubt) [Example 319, (7R,14S)-1-(difluoromethoxy)-12-((S)-6-(2-hydroxypropan-2-yl)-5,6-dihydro-2H-pyran-3-yl)-6-methyl-6,7-dihydro-7,14-methanobenzo[c]pyrido[1′,2′:1,5]pyrazolo[4,3-f]azocin-5 (14H)-one] it is less than 0.025 µM; for `[2H]C([2H])([2H])N1C(=O)c2cccc(OC(F)F)c2[C@H]2C[C@@H]1c1nn3ccc(-c4cnc([C@@](C)(O)CC#N)nc4)cc3c12` [Example 89] it is less than 0.025 µM.
For `CN1C(=O)c2ccc(F)c(OC(F)F)c2[C@H]2C[C@@H]1c1nn3ccc(-c4ccc(P(C)(C)=O)nc4)cc3c12` [Example 34] the value was less than 0.025 µM; for `[2H]C([2H])([2H])N1C(=O)c2cccc(OC(F)F)c2[C@H]2C[C@@H]1c1nn3cc(F)c(-c4cnc(C5(N)CCC5)cn4)cc3c12` [Example 199], less than 0.025 µM.
The figure for `CN1C(=O)c2cccc(OC(F)F)c2[C@H]2C[C@@H]1c1nn3ccc(-c4cnc([C@](O)(CC#N)C(F)F)nc4)cc3c12` [Example 78] is less than 0.025 µM.
Consider `CN1C(=O)c2cccc(OC(F)F)c2[C@H]2C[C@@H]1c1nn3ccc(-c4ccc(P(C)(C)=O)nc4)nc3c12` [Example 13, (7R,14S)-1-(difluoromethoxy)-12-(6-(dimethylphosphoryl)pyridin-3-yl)-6-methyl-6,7-dihydro-7,14-methanobenzo[c]pyrimido[1′,2′:1,5]pyrazolo[4,3-f]azocin-5 (14H)-one], for which the IC50 was less than 0.025 µM.
`CN1C(=O)c2cccc(OC(F)F)c2[C@H]2C[C@@H]1c1nn3ccc(-c4cnc([C@@]5(O)CC[C@@H](O)C5)nc4)cc3c12` [Example 112]: the IC50 was less than 0.025 µM.
The figure for `[2H]C([2H])([2H])N1C(=O)c2cccc(OC(F)F)c2[C@H]2C[C@@H]1c1nn3cc(F)c(-c4cnc([C@]5(N)C[C@@H](C#N)C5)nc4)nc3c12` [Example 227] is less than 0.025 µM; for `CN1C(=O)c2cccc(OC(F)F)c2[C@H]2C[C@@H]1c1nn3ccc(-c4cnc([C@]5(O)C[C@@](C)(C(N)=O)C5)nc4)cc3c12` [Example 160] it is less than 0.025 µM; for `CN1C(=O)c2cccc(OC(F)F)c2[C@H]2C[C@@H]1c1nn3ccc(-c4cnc([C@]5(O)C[C@@](C)(O)C5)cn4)cc3c12` [Example 42] it is less than 0.025 µM.
`CN1C(=O)c2cccc(OC(F)F)c2[C@H]2C[C@@H]1c1nn3cc(F)c(-c4cnc(P(C)(C)=O)c(F)c4)cc3c12` [Example 39]: the IC50 is less than 0.025 µM.
On to `CN1C(=O)c2cccc(OC(F)F)c2[C@H]2C[C@@H]1c1nn3ccc(-c4cnc([C@@H](O)C5COC5)nc4)cc3c12` [Example 136], for which the IC50 was less than 0.025 µM.
The figure for `CN1C(=O)c2cccc(C3CC3)c2[C@H]2C[C@@H]1c1nn3ccc(-c4ccc(P(C)(C)=O)nc4)cc3c12` [Example 304] is less than 0.025 µM; for `C[C@@H](O)c1ncc(-c2ccn3nc4c(c3c2)[C@@H]2C[C@H]4N(C)C(=O)c3cccc(OC(F)F)c32)cn1` [Example 94] it is less than 0.025 µM; for `[2H]C([2H])([2H])N1C(=O)c2cccc(C#N)c2[C@H]2C[C@@H]1c1nn3ccc(-c4cnc(C5(N)CCC5)nc4)nc3c12` [Example 310] it is 0.025 to 0.1 µM.
For `CN1C(=O)c2cccc(OC(F)F)c2[C@H]2C[C@@H]1c1nn3ccc(-c4ccc(S(=N)(=O)C5CC5)nc4)cc3c12` (some centres unmarked) [Example 68] the value was less than 0.025 µM; for `CN1C(=O)c2cccc(OC(F)F)c2[C@H]2C[C@@H]1c1nn3ccc(-c4ncc(P(C)(C)=O)cn4)cc3c12` [Example 138], less than 0.025 µM; for `CN1C(=O)c2cccc(OC(F)F)c2C2CC1c1nn3ccc(-c4cnc(C5(N)CCC5)nc4)cc3c12` (centres unmarked) [Example 14, 12-(2-(1-aminocyclobutyl)pyrimidin-5-yl)-1-(difluoromethoxy)-6-methyl-6,7-dihydro-7,14-methanobenzo[c]pyrido[1′,2′:1,5]pyrazolo[4,3-f]azocin-5 (14H)-one], less than 0.025 µM.
On to `CN1C(=O)c2cccc(OC(F)F)c2[C@H]2C[C@@H]1c1nn3ccc(-c4cnc(C5(N)COC5)nc4)cc3c12` [Example 49], for which the IC50 was less than 0.025 µM.
As to `CN1C(=O)c2cccc(OC(F)F)c2[C@H]2C[C@@H]1c1nn3ccc(-c4ccnc(OCP(C)(C)=O)c4)cc3c12` [Example 70], the IC50 was less than 0.025 µM.
The figure for `O=C1N[C@@H]2C[C@H](c3c(OC(F)F)cccc31)c1c2nn2ccc(-c3cnc(N4CCOCC4)nc3)cc12` [Example 162] is less than 0.025 µM.
For `[2H]C([2H])([2H])N1C(=O)c2cccc(OC(F)F)c2[C@H]2C[C@@H]1c1nn3cc(F)c(-c4cnc([C@]5(N)C[C@](C)(C#N)C5)nc4)cc3c12` [Example 244] the value was less than 0.025 µM; for `CP(C)(=O)c1ccc(-c2ccn3nc4c(c3c2)[C@@H]2C[C@H]4NC(=O)c3cccc(OC(F)F)c32)cc1F` [Example 127], less than 0.025 µM; for `[2H]C([2H])([2H])N1C(=O)c2cccc(OC(F)F)c2[C@H]2C[C@@H]1c1nn3ccc(-c4ccc(P(C)(C)=O)nc4)cc3c12` [Example 31], less than 0.025 µM.
